Results taken from patent US9127136B1, “Purification of monomer from recycle polyesters” (SABIC Global Technologies B.V, priority 2014, dated 2015).
Values after ≈ are worked out from the molar mass of the structure shown.

Assay: Solubility of BHET in different solvents (shaken 2 hours, analyzed by HPLC)
Format: physicochemical
Method: Solubility of BHET in Different Solvents
10 ml of the designated solvent was added to a scintillation vial with 2 g of BHET. The vial was placed in a shaker, shaken for 2 hours and the contents were analyzed by HPLC.

O=C(OCCO)c1ccc(C(=O)OCCO)cc1 [BHET, bis(2-hydroxyethyl) terephthalate]
solubility of BHET in 45% THF/Hexanes (estimated) (solvent: 45% THF/Hexanes, estimated from 12.6% solubility in THF): 5.67%
% Solubility (w/v) (solvent: Acetone): 9.09 % (w/v)
% Solubility (w/v) (solvent: Acetonitrile): 4.98 % (w/v)
% Solubility (w/v) (solvent: DMF): 60 % (w/v)
% Solubility (w/v) (solvent: Dichloromethane): 1.12 % (w/v)
% Solubility (w/v) (solvent: Ethanol): 8.61 % (w/v)
% Solubility (w/v) (solvent: Methanol): 13.75 % (w/v)
% Solubility (w/v) (solvent: THF): 12.6 % (w/v)
% Solubility (w/v) (solvent: ethylene glycol): 2.81 % (w/v)
% Solubility (w/v) (solvent: hexanes): _~0 % (w/v)
% Solubility (w/v) (solvent: iso-propanol): 6.16 % (w/v)
solubility thermodynamic at 2 h (thermodynamic from solid, solvent: water): 5 mg/mL (≈ 19.7 mM)
